Results on 1 molecule are retold here after patent publication US20180194967A1, “ANTIMICROBIAL PEPTIDE AMPHIPHILE COATINGS” (priority 2017, published 2018).

The nature of the series: Coating thickness by optical profilometry. As to conditions: submersion coating on PVC-coated glass slide. Type of series: physicochemical. On the procedure:
For surface topology studies, PVC powder was purchased and dissolved in 3:2 cyclopentanone:tetrahydrofuran at a concentration of 10 mg/mL. PVC solution (50 μL) was used to spin-coat 1 cm diameter glass slides for 1 minute at 3,000 RPM. The PVC-coated slides were allowed to dry for 24 hours prior to submersion coating in 2 mL AMPA solutions. Coated products were removed from submersion and dried in 24-well plates under aseptic conditions for at least 24 hours prior to characterization. The coating was assessed via contact angle to evaluate surface hydrophilicity and optical profilometry to measure coating thickness. […] Electron microscopy of the AMPA coatings has shown no presence of micelles.

Where a SMILES comes first, the peptide text is derived from it. Bridges are numbered along the chain shown (N, C = ends). [ ]: non-standard residue; d: D form. The star is where a group is joined. d2Nal = N[C@H](Cc1ccc2ccccc2c1)C(=O)O; Palmitoyl = CCCCCCCCCCCCCCCC(=O)*

As to `CCCCCCCCCCCCCCCC(=O)NCCCC[C@H](NC(=O)[C@H]1CCCN1C(=O)[C@H](NC(=O)[C@@H]1CCCCNC(=O)C[C@H](NC(=O)[C@@H](NC(=O)[C@H](CCCNC(=N)N)NC(=O)[C@@H](NC(=O)[C@H](CCCNC(=N)N)NC(=O)[C@@H](NC(=O)[C@H](CCCNC(=N)N)NC(=O)[C@@H](N)Cc2ccccc2)[C@@H](C)CC)C(C)C)C(C)C)C(=O)N[C@@H](CCCNC(=N)N)C(=O)N[C@@H](CCCNC(=N)N)C(=O)N[C@H](Cc2ccc3ccccc3c2)C(=O)N[C@@H](Cc2ccccc2)C(=O)N[C@@H](Cc2c[nH]c3ccccc23)C(=O)N[C@@H](CCCNC(=N)N)C(=O)N1)C(C)C)C(N)=O` [AB01-KPalm, FRIRVRV[DRR-dNal(2′)-FWRK]dV-Dp [SEQ. ID. NO. 1]-K(Palm)] (H-FRIRVRVDRR[d2Nal]FWRK[dV][dP]K(Palmitoyl)-NH2; lactam 8-15; N-terminus and C-terminus assumed), the coating thickness entry is “approximately 30 nm”.
